# Patent US20220396565A1 (Hoffmann-La Roche Inc., priority 2020, published 2022)
# Counter-ions that a name gives are not always drawn. Like-named read-outs stand apart in the source and are kept apart here.
# Tested on: Acinetobacter baumannii ATCC17961
# Test: Antimicrobial susceptibility testing: 90% growth inhibitory concentration (IC90) determination, Iso-Sensitest broth
# Assay type: cell-based
# Procedure, shortened: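 Growth at OD600 was monitored every 20 min for 16 h at 35±2 °C, with bacteria inoculated at ~5×10^(5) CFU/ml into Iso-Sensitest medium. Compounds were tested as 10-point twofold dilutions (e.g. 10–0.02 μM final). The 90% inhibitory concentration comes from the log-phase growth.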
# [1] = Acinetobacter baumannii, ATCC17961, 90% growth inhibitory concentration, Acinetobacter baumannii ATCC17961, Iso-Sensitest broth, read-out: ATCC 17961 IC90
# [2] = Acinetobacter baumannii, ATCC17961, read-out: ATCC 17961 IC90
IC90 [1] [nM],Structure (SMILES),also measured
100,"COc1ccc(-c2cnc(C(=O)Nc3ccc(C(=O)N4CCN(C(=O)CC5CCC(=O)N5)CC4)c(Cl)c3)n2C)c(F)c1F (stereo not drawn) [Example 127, N-[3-chloro-4-[4-[2-(5-oxopyrrolidin-2-yl)acetyl]piperazine-1-carbonyl]phenyl]-5-(2,3-difluoro-4-methoxy-phenyl)-1-methyl-imidazole-2-carboxamide]",–
800,"Cn1c(-c2ccc(OCC#N)c(F)c2F)cnc1C(=O)Nc1ccc(C(=O)N2CCN(C(=O)CN3CC[C@@H](C(=O)O)C3)CC2)c(Cl)c1 [Example 215, (R)-1-(2-(4-(2-chloro-4-(5-(4-(cyanomethoxy)-2,3-difluorophenyl)-1-methyl-1H-imidazole-2-carboxamido)benzoyl)piperazin-1-yl)-2-oxoethyl)pyrrolidine-3-carboxylic acid 2,2,2-trifluoroacetic acid]",–
320,"COc1ccc(-c2cnc(C(=O)Nc3ccc(C(=O)N4CCN(S(C)(=O)=O)CC4)c(Cl)c3)n2C)c(F)c1F [Example 240, N-[3-chloro-4-(4-methylsulfonylpiperazine-1-carbonyl)phenyl]-5-(2,3-difluoro-4-methoxy-phenyl)-1-methyl-imidazole-2-carboxamide]",–
40,"COc1ccc(-c2cnc(C(=O)Nc3ccc(C(=O)N4CCN(C(=O)CCCCN)CC4)c(Cl)c3)n2C)c(F)c1F [Example 124, N-[4-[4-(5-aminopentanoyl)piperazine-1-carbonyl]-3-chloro-phenyl]-5-(2,3-difluoro-4-methoxy-phenyl)-1-methyl-imidazole-2-carboxamide formate]",–
40,"Cn1c(-c2ccc(OCF)c(F)c2Cl)cnc1C(=O)Nc1ccc(C(=O)N2CCN(C(=O)C[C@@H]3CCNC3)CC2)c(Cl)c1 [Example 146, 5-[2-chloro-3-fluoro-4-(fluoromethoxy)phenyl]-N-[3-chloro-4-[4-[2-[(3S)-pyrrolidin-3-yl]acetyl]piperazine-1-carbonyl]phenyl]-1-methyl-imidazole-2-carboxamide formate]",–
–,"Cn1c(-c2ccc(OCF)c(F)c2F)cnc1C(=O)Nc1ccc(C(=O)N2CCN(C(=O)C3CNCC(O)C3)CC2)c(Cl)c1 (stereo not drawn) [Example 171, formate]",IC90 [2]: 50 nM
70,"COc1ccc(-c2cnc(C(=O)Nc3ccc(C(=O)N4CCN(C(=O)C56CC(N)(C5)C6)CC4)c(Cl)c3)n2C)c(F)c1F [Example 132, N-[4-[4-(3-aminobicyclo[1.1.1]pentane-1-carbonyl)piperazine-1-carbonyl]-3-chloro-phenyl]-5-(2,3-difluoro-4-methoxy-phenyl)-1-methyl-imidazole-2-carboxamide formate]",–
50,"Cn1c(-c2ccc(OC(F)F)c(F)c2F)cnc1C(=O)Nc1ccc(C(=O)N2CCC(C(=O)N[C@H]3CCNC3)CC2)c(Cl)c1 [Example 95, (S)-1-(2-chloro-4-(5-(4-(difluoromethoxy)-2,3-difluorophenyl)-1-methyl-1H-imidazole-2-carboxamido)benzoyl)-N-(pyrrolidin-3-yl)piperidine-4-carboxamide formate]",–
30,"COc1ccc(-c2cnc(C(=O)Nc3ccc(C(=O)N4CCN(C(=O)CN)CC4)c(Cl)c3)n2C)c(F)c1F [Example 149, N-[4-[4-(2-aminoacetyl)piperazine-1-carbonyl]-3-chloro-phenyl]-5-(2,3-difluoro-4 methoxy-phenyl)-1-methyl-imidazole-2-carboxamide formate]",–
40,"COc1ccc(-c2cnc(C(=O)Nc3ccc(C(=O)N4CCN(C(=O)[C@H]5CC[C@@H](N)C5)CC4)c(Cl)c3)n2C)c(F)c1F [Example 108, N-[4-[4-[(1S,3R)-3-aminocyclopentane-carbonyl]piperazine-1-carbonyl]-3-chloro-phenyl]-5-(2,3-difluoro-4-methoxy-phenyl)-1-methyl-imidazole-2-carboxamide; formate]",–
–,"COc1ccc(-c2cnc(C(=O)Nc3ccc(C(=O)N4CCN(C(=O)N[C@H]5CNC[C@@H]5O)CC4)c(Cl)c3)n2C)c(F)c1F [Example 284, 4-[2-chloro-4-[[5-(2,3-difluoro-4-methoxy-phenyl)-1-methyl-imidazole-2-carbonyl]amino]benzoyl]-N-[(3S,4S)-4-hydroxypyrrolidin-3-yl]piperazine-1-carboxamide formate]","IC90 (90% growth inhibitory concentration, Acinetobacter baumannii ATCC17961, Iso-Sensitest broth, formate, read-out: ATCC 17961 IC90): 80 nM"
–,"Cn1c(-c2ccc(OCC#N)c(F)c2F)cnc1C(=O)Nc1ccc(C(=O)N2CCN(CCNCC(N)=O)CC2)c(Cl)c1 [Example 287, N-[4-[4-[2-[(2-amino-2-oxoethyl)amino]ethyl]piper-azine-1-carbonyl]-3-chloro-phenyl]-5-[4-(cyanomethoxy)-2,3-difluoro-phenyl]-1-methyl-imidazole-2-carboxamide formate]",IC90 [2]: 140 nM
40,"Cn1c(-c2ccc(OCC#N)c(F)c2Cl)cnc1C(=O)Nc1ccc(C(=O)N2CCN(C(=O)[C@@H]3CCNC3)CC2)c(Cl)c1 [Example 254, 5-[2-chloro-4-(cyanomethoxy)-3-fluoro-phenyl]-N-[3-chloro-4-[4-[(3R)-pyrrolidine-3-carbonyl]piperazine-1-carbonyl]phenyl]-1-methyl-imidazole-2-carboxamide formate]",–
50,"Cn1c(-c2ccc(OC(F)F)c(F)c2Cl)cnc1C(=O)Nc1ccc(C(=O)N2CCN(C(=O)CC3(O)CCNCC3)CC2)c(Cl)c1 [Example 172, 5-[2-chloro-4-(difluoromethoxy)-3-fluoro-phenyl]-N-[3-chloro-4-[4-[2-(4-hydroxy-4-piperidyl)acetyl]piperazine-1-carbonyl]phenyl]-1-methyl-imidazole-2-carboxamide formate]",–
480,"CCc1cc(NC(=O)c2ncc(-c3ccc(OC)c(F)c3F)n2C)ccc1C(=O)N1CCC(C(=O)NCCOCCN(C)C)CC1 [Example 99, 1-[4-[[5-(2,3-difluoro-4-methoxy-phenyl)-1-methyl-imidazole-2-carbonyl]amino]-2-ethyl-benzoyl]-N-[2-[2-(dimethylamino)ethoxy]ethyl] piperidine-4-carboxamid]",–
60,"Cn1c(-c2ccc(OCC#N)c(F)c2F)cnc1C(=O)Nc1ccc(C(=O)N2CCN(CCN)CC2)c(Cl)c1 [Example 19, N-[4-[4-(2-aminoethyl)piperazine-1-carbonyl]-3-chloro-phenyl]-5-[4-(cyanomethoxy)-2,3-difluoro-phenyl]-1-methyl-imidazole-2-carboxamide trifluoroacetate]",–
2100,"COc1ccc(-c2cnc(C(=O)Nc3ccc(C(=O)N4CCC(C(=O)NCCCC(=O)O)CC4)c(Cl)c3)n2C)c(F)c1F [Example 68, 4-[[1-[2-chloro-4-[[5-(2,3-difluoro-4-methoxy-phenyl)-1-methyl-imidazole-2-carbonyl]amino]benzoyl]piperidine-4-carbonyl]amino]butanoic acid]",–
–,"COc1ccc(-c2cnc(C(=O)Nc3ccc(C(=O)N4CCN(C(=O)C5CCN(CCN)CC5)CC4)c(Cl)c3)n2C)c(F)c1F [Example 290, N-[4-[4-[1-(2-Aminoethyl)piperidine-4-carbonyl]piperazine-1-carbonyl]-3-chloro-phenyl]-5-(2,3-difluoro-4-methoxy-phenyl)-1-methyl-imidazole-2-carboxamide formate]",IC90 [2]: 50 nM
40,"Cn1c(-c2ccc(OC(F)F)c(F)c2F)cnc1C(=O)Nc1ccc(C(=O)N2CCN(C(=O)C3CCN(CCN)CC3)CC2)c(Cl)c1 [Example 292, N-[4-[4-[1-(2-aminoethyl)piperidine-4-carbonyl]piperazine-1-carbonyl]-3-chloro-phenyl]-5-[4-(difluoromethoxy)-2,3-difluoro-phenyl]-1-methyl-imidazole-2-carboxamide trifluoroacetate]",–
130,"COc1ccc(-c2cnc(C(=O)Nc3ccc(C(=O)N4CCC(C(=O)NCc5ccncc5)CC4)c(Cl)c3)n2C)c(F)c1F [Example 36, 1-[2-chloro-4-[[5-(2,3-difluoro-4-methoxy-phenyl)-1-methyl-imidazole-2-carbonyl]amino]benzoyl]-N-(4-pyridylmethyl)piperidine-4-carboxamide]",–
–,"COc1ccc(-c2cnc(C(=O)Nc3ccc(C(=O)N4CCC(NS(=O)(=O)C5CCNCC5)CC4)c(Cl)c3)n2C)c(F)c1F [Example 235, N-[3-Chloro-4-[4-(4-piperidylsulfonylamino)piperidine-1-carbonyl]phenyl]-5-(2,3-difluoro-4-methoxy-phenyl)-1-methyl-imidazole-2-carboxamide formate]",IC90 [2]: 60 nM
60,"COc1ccc(-c2cnc(C(=O)Nc3ccc(C(=O)N4CCN(C(=O)C5(O)CCNC5)CC4)c(Cl)c3)n2C)c(F)c1F (stereo not drawn) [Example 141, N-[3-chloro-4-[4-(3-hydroxypyrrolidine-3-carbonyl)piperazine-1-carbonyl]phenyl]-5-(2,3-difluoro-4-methoxy-phenyl)-1-methyl-imidazole-2-carboxamide formate]",–
–,"Cn1c(-c2ccc(OCC#N)c(F)c2F)cnc1C(=O)Nc1ccc(C(=O)N2CCC(C(=O)N3CCN[C@H](CO)C3)CC2)c(Cl)c1 [Example 86, (S)-N-(3-ehloro-4-(4-(3-(hydroxymethyl)piperazine-1-carbonyl)piperidine-1-carbonyl)phenyl)-5-(4-(cyanomethoxy)-2,3-difluorophenyl)-1-methyl-1H-imidazole-2-carboxamide 2,2,2-trifluoroacetate]",IC90 [2]: 100 nM
40,"Cn1c(-c2ccc(OC(F)F)c(F)c2F)cnc1C(=O)Nc1ccc(C(=O)N2CCC(C(=O)N[C@@H]3CCNC3)CC2)c(Cl)c1 [Example 91, (R)-1-(2-chloro-4-(5-(4-(difluoromethoxy)-2,3-difluorophenyl)-1-methyl-1H-imidazole-2-carboxamido)benzoyl)-N-(pyrrolidin-3-yl)piperidine-4-carboxamide formate]",–
